From patent US10919896B2, “Preparation and uses of pyrimidinone derivatives” (Cancer Research Technology Limited, priority 2016, dated 2021) come the findings set out here.

Assay [1] deals with Cdc7 (pS53MCM2 levels in HCT116 cells). Kind of assay: Cdc7 Cell Pharmacodynamics Assay Method 1: pS53MCM2 levels in HCT116 cells, 6 hours. It is filed as cell-based. The note with it: Homo sapiens, HCT-116, 6 h, read-out: Biomarker Method 1 (pEC50) (converted). An excerpt:
This protocol describes a method to investigate the inhibition of Cdc7 activity of compounds by measuring pS53MCM2 levels in cells after treatment.
• HCT116 cells (wild type P53 positive) • McCoys 5A media (PAA Laboratories Ltd, E15-022) • 10% FCS (Sera Laboratories International Ltd, EU000F Batch:108005) • 100× L-Glutamine (Invitrogen, 25030-024) • D-PBS without CaCl2 and MgCl2 (Invitrogen, ref 14190-094) • Trypsin/EDTA (Invitrogen 25300-054) • 2% BSA in PBS • Cell Extraction Buffer (Invitrogen FNN0011) • Protease inhibitor cocktail (Sigma P-2714) • PMSF 0.3M stock in DMSO (Sigma P7626) • Antibody-rabbit pMCM2 Ser53 (Bethyl #A300-756A) • Antibody-goat MCM2 (Bethyl #A300-122A) • Antibody-goat Anti Rabbit IgG HRP (Perbio Science UK Ltd 31462) • 1×PBS • FACE Wash buffer (0.02% Triton X100 in 1×PBS) • SuperSignal ELISA Pico Chemiluminescent Substrate (Perbio Science UK Ltd 37070) Method • 72 hours prior to the start of the experiment plate 1×10^6 HCT 116 cells in a 150 cm^2 flask in complete McCoys 5A media (+10% FCS+1× L-glutamine). • Plate 20,000 HCT116 cells per well in standard TC treated 96 well plate in 100 μL complete McCoys 5A media. • Allow cells to settle overnight in incubator set at 37° C. and 5% CO2. • Remove intermediate plate from fridge and place at 37° C. overnight to allow to equilibrate. • Cell treatment: cell assay plate 100 μL; daughter to cell transfer volume 3.33 μL; daughter volume 45 μL; mother plate to daughter volume 5 μL. • Once all cells are treated remove the cells to the incubator and incubate for 6 hours. • Dilute the capture antibody (total MCM2#A300-122A) 1 in 250 in the required volume of PBS (5 mL per assay plate) and add 50 μL to each well of a Hybond plate excluding wells 12E to 12H. In these wells add 50 μL PBS. Seal the plate and incubate at room temperature for a minimum of 2 hours. • Defrost aliquot of Invitrogen Cell Extraction Buffer (FNN0011) on ice and supplement with appropriate volume of both Sigma protease inhibitor cocktail (P-2714) and PMSF (final conc 1 mM from a 1 M stock in DMSO). • After the 6 hour cell treatment time tap out the media from the assay plates and place them in the −70° C. freezer for at least 5 minutes. • Remove plates from freezer and add 20 μL of ice cold complete lysis buffer on ice. Incubate cells for 30 minutes at 4° C. • Add 80 μL per well 2% BSA. • Transfer 80 μL from the lysis plate to the same wells in the capture/ELISA plate. Cover with plate seal and incubate plates overnight at 4° C. • Wash plates with PBS, remove any residual remaining liquid and add 50 μL per well of pMCM2 Ser53 antibody (#A300-756A) diluted 1 in 100 in 2% BSA. Cover plate and incubate at room temperature for 2 hours with gentle shaking. • Wash plates with PBS, remove any residual remaining liquid and Incubate with 50 μL goat anti rabbit antibody (1 in 800 dilution in 2% BSA) for 1 hour at room temperature. • Wash plates with PBS, remove any residual remaining liquid and add 50 μL mixed SuperSignal Pico substrate. • Incubate each plate for 5 minutes at room temperature shielding the plates from direct light (with a cover plate). Read plates with the luminescent detection. Method 2A and 2B

Assay [2] addresses T1, Cdc7/ASK (Homo sapiens, UniProt O00311). In words: Cdc7 Biochemical Assay Method 2: 384 well mobility shift assay (EZ Reader II), MCM2 peptide substrate. More on the design: purchased. The conditions noted are these: 12.5 μM ATP, read-out: Biochemical Method 2 (pIC50) (converted). The procedure:
This protocol describes a method for assaying Cdc7/ASK for activity. The assay is a 384 well mobility shift assay (MSA) run on the EZ Reader II microfluidics plate reader (Caliper LifeSciences), utilising a peptide substrate based on the MCM2 sequence. The assay technology is based on the change in mobility between the peptide substrate and the phosphorylated product. A 10 nL volume of the reaction mixture is sipped onto the microfluidic chip where the substrate and product are separated by electrophoresis and detected via laser-induced fluorescence (488 nm LED). The reaction can be monitored in real-time for kinetic experiments or as an end-point for IC50 determinations. The % conversion of substrate is calculated from peak heights of product (P) and substrate (S) peptides (% conversion=P/(P+S)*100).
• 10× Assay Buffer: 200 mM HEPES pH 8, 100 mM MgCl2, 0.1% v/v Triton X-100 and 15 mM DTT. Prepare fresh buffer from 1 M HEPES pH 8, 1 M MgCl2, 1 M DTT and 10% Triton x-100 stocks for each experiment. • Cdc7/ASK is purchased from commercial suppliers and used in the assay at a final assay concentration of 0.847 ng/μL or 9.2 nM. • MCM2 peptide is purchased from commercial suppliers and used in the assay at a final assay concentration of 2.5 μM. • ATP used in the assay at a final assay concentration of 12.5 μM. Methods • 1. Prepare intermediate (daughter) compound plate by transferring 2 μL of compound from the mother plate to 18 μL of 33.3% DMSO in a clear polypropylene plate. • 2. Dry-spot 1 μL of compound from the intermediate compound plate to empty assay plate. • 3. Add 5 μL of 1.694 ng/μL CDC7/ASK working solution to ‘test’ and ‘control’ wells or […] of 2× Assay Buffer to ‘blank’ wells. • 4. Add 4 μL 2.5 μM peptide/12.5 μM ATP working solution to all wells. • 5. Incubate at 37° C. for 1 hour then remove from the incubator and leave for a further 1 hour at room temperature. • 6. Place plate into an EZReader II to read.
Percentage inhibition values were calculated from % of substrate conversion values, using the no compound (DMSO) and no enzyme control values as 0% and 100% inhibition, respectively. IC50 determination was performed with ExcelFit software (IDBS) using curve fit 205. Z′ factors were determined for each plate tested and were all above 0.5.

In assay [3] the target is Cdc7/Dbf4 (Homo sapiens, UniProt O00311). In words: Cdc7 Biochemical Assay Method 3: Cdc7/Dbf4 Enzyme TR-FRET Assay measuring pS40MCM2. The note with it: 1 μM ATP, read-out: Biochemical Method 3 (pIC50) (converted). Put shortly:
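TR-FRET read-out (terbium anti-rabbit donor, streptavidin-Alexa Fluor488 acceptor, anti-Mcm2 pS40 antibody) of peptide phosphorylation after 120 min at 25° C; reaction held 1 μM ATP, 100 nM biotin-tagged peptide substrate and 2.5 nM enzyme complex.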
A general note: In TR-FRET formats the signal depends on donor and acceptor labels being close together.

Assay [4] deals with T1, Cdc7/ASK. Kind of assay: Cdc7 Biochemical Assay Method 1: 384 well ELISA, whole protein substrate MCM2, antibody against Phospho MCM2 (S53). Set-up: purchased. The conditions noted are these: 2 μM ATP, read-out: Biochemical Method 1 (pIC50) (converted). Summed up: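 MCM2 protein substrate was coated on nickel-chelate plates, then Cdc7/ASK was added with 2 μM ATP in 50 mM Tris-HCl pH 8.5, 10 mM MgCl2, 1 mM DTT, 4% DMSO, 90 min at room temperature. Phospho-MCM2 (S53) was detected by ELISA with an AP secondary and PNPP absorbance. IC50 was derived from % inhibition versus no-compound and no-enzyme controls.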
A general note: In an ELISA, binding on a coated surface is turned into a signal by an enzyme label.

T1 sequence (O00311 whole entry): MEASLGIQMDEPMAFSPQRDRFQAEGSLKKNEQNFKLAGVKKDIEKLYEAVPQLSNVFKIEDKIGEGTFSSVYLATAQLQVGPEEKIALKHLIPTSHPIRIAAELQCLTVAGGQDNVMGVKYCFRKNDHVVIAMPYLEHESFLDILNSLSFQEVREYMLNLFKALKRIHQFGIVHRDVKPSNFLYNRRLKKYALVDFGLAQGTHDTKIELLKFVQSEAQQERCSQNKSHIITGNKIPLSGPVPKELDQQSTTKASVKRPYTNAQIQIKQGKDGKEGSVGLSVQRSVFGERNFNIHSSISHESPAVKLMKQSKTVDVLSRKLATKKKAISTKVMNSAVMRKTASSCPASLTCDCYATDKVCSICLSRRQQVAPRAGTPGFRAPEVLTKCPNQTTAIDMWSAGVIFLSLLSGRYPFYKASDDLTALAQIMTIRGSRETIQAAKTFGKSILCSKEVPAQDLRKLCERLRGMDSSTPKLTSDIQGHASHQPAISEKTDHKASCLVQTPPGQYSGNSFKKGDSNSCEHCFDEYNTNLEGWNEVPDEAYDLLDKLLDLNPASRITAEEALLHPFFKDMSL
T1 sequence (Q9UBU7 whole entry partner): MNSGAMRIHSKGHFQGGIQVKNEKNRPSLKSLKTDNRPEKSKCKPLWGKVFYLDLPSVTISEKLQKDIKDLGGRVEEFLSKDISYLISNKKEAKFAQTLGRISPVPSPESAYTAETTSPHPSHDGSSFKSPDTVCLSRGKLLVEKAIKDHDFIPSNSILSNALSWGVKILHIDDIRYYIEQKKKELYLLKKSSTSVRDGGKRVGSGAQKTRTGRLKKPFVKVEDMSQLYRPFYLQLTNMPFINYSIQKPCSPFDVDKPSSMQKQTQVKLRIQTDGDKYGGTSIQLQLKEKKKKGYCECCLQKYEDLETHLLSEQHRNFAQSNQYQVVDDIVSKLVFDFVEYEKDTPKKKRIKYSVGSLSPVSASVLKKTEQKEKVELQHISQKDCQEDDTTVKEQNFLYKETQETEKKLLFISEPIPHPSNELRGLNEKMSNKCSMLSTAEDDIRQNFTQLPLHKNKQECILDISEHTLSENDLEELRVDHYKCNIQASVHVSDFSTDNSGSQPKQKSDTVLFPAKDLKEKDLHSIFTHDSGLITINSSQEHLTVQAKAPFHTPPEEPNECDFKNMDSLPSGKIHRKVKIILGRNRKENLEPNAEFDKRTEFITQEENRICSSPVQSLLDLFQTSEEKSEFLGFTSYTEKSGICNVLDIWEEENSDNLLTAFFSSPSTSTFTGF
Chain of Cdc7/Dbf4 (O00311 whole entry): as the sequence (O00311 whole entry) above
Chain of Cdc7/Dbf4 (Q9UBU7 whole entry partner): as the sequence (Q9UBU7 whole entry partner) above

Turning to `CC[C@H]1CNCCN1c1nc(-c2ccncc2)[nH]c(=O)c1Cl` [Compound 369], the EC50 in assay [1] is 0.891 µM. Further, the IC50 in assay [2] was 0.0055 µM.
As for `CC(C)[C@H]1CNCCN1c1nc(-c2ccncc2)[nH]c(=O)c1Cl` [Compound 370], the EC50 in assay [1] was 1.02 µM. Further, the IC50 in assay [2] is 0.012 µM.
Turning to `CC(C)C[C@H]1CN2CCC[C@H]2CN1c1nc(-c2ccncc2)[nH]c(=O)c1Cl` [Compound 184], the IC50 in assay [3] is 0.102 µM; in assay [4] it was 0.437 µM; in assay [2] it was 0.17 µM.
`CC(C)[C@H]1CN(c2nc(-c3ccncc3)[nH]c(=O)c2Br)CCN1` [Compound 408, 5-bromo-4-[(3S)-3-isopropylpiperazin-1-yl]-2-(4-pyridyl)-1H-pyrimidin-6-one]: the EC50 in assay [1] is 0.257 µM. The IC50 in assay [2] is 0.00525 µM.
For the molecule `CC(C)(C)[C@H]1CN(c2nc(-c3ccncc3)[nH]c(=O)c2Br)CCN1` [Compound 410, 5-bromo-4-[(3S)-3-tert-butylpiperazin-1-yl]-2-(4-pyridyl)-1H-pyrimidin-6-one], the EC50 in assay [1] is 0.269 µM. Further, the IC50 in assay [2] was 0.00912 µM.
Taken in the same sequence, the figures for `CC(F)(F)[C@H]1CN(c2nc(-c3ccnc(F)c3)[nH]c(=O)c2Cl)CCN1` [Compound 315] were 0.0631 µM and 0.00151 µM.
For the molecule `NC1CCN(c2nc(-c3ccnc(F)c3)[nH]c(=O)c2Cl)CC1` [Compound 321], the EC50 in assay [1] was 0.457 µM. Moreover, in assay [2], the IC50 was 0.00229 µM.
Regarding `CC1CNCCN1c1nc(-c2ccncc2)[nH]c(=O)c1Cl` (stereo not shown) [Compound 368], in assay [1], the EC50 was 0.0155 µM. The IC50 in assay [2] was 0.000603 µM.
Turning to `CC[C@@H]1CNCCN1c1nc(-c2ccncc2)[nH]c(=O)c1Cl` [Compound 371], the EC50 in assay [1] is 0.245 µM. For the same molecule, the IC50 in assay [2] is 0.00309 µM.
As for `CC(F)(F)[C@H]1CN(c2nc(-c3ccncc3)[nH]c(=O)c2Cl)CCN1` [Compound 307], the values for the IC50 in assay [4] and in assay [2] were 0.00363 µM and 0.00229 µM, respectively.
Take `C[C@H]1COCCN1c1nc(-c2ccncc2)[nH]c(=O)c1Cl` [Compound 365]: the EC50 in assay [1] was 0.263 µM. The IC50 in assay [2] is 0.00708 µM.
Taken in the same sequence, the figures for `CC(C)(C)[C@H]1CN(c2nc(-c3ccnc(F)c3)[nH]c(=O)c2Cl)CCN1` [Compound 322] were 0.0427 µM and 0.00138 µM.
